Experimental findings from article PMC3144702, “Structural and Functional Analysis of the Complex between Citrate and the Zinc Peptidase Carboxypeptidase A” (2011) are described below.

Each structure is given as a SMILES string. pKi: −log10 of the molar value.

The target of assay [1] is T1, carboxypeptidase A (Bos taurus, UniProt P00730).
T1 construct: gene CPA1
T1 sequence (P00730 111-419): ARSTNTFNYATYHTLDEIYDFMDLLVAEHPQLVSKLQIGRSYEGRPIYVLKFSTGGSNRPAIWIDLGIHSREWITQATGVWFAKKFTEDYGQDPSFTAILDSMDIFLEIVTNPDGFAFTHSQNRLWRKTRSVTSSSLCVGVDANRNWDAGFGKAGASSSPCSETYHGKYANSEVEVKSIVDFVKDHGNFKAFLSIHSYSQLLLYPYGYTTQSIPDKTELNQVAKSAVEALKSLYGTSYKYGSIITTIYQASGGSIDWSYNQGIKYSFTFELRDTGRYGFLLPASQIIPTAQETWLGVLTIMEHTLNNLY
The experiment in a line: competitive enzyme inhibition assay with AAFP substrate, absorbance; Ki from IC50 by Cheng-Prusoff. The assay is classed as biochemical.

Assay [2] addresses T1, carboxypeptidase A. The experiment in a line: X-ray crystal structure at […] Å; Ki from competitive inhibition assay with AAFP substrate. The format is biochemical.

Broadly, the pKi is the Ki on a negative log10 scale, so that one unit is a factor of ten. A lower pKi goes with a large Ki. Take `O=C(O)C[C@@H](Cc1ccccc1)C(=O)O` [BzlSA, benzylsuccinic acid]: on carboxypeptidase A [1], the pKi is 6.28.
With `O=C(O)CC(O)(CC(=O)O)C(=O)O` [citrate], the pKi at carboxypeptidase A [2] was 2.30.
